Experiments:
[1] = test system: p27 phosphorylation at S83 and T187 in cardiomyocytes; assay: p27 phosphorylation at S83 and T187 in Ang II-treated cardiomyocytes (Western blot); assay type: cell-based, rat; settings: Ang II 4 h; lentiviruses 72 h; DMAT 20 μM pre-incubated 30 min; TAT-conjugated CK2-alpha-prime 2.5 μg/ml 1 h
Procedure: FIG. 2 is a series of graphs and blots showing Ang II triggers CK2-alpha-prime-dependent phosphorylation of p27 on S83 and T187 in cardiomyocytes. (A) p27 is a substrate of CK2-alpha-prime. […] In vitro kinase assays employing recombinant wt.p27 (1 μg) or phosphorylation site mutants of p27 as substrates were incubated with recombinant CK2-alpha-prime/beta (200 ng). Aliquots of the reaction mixtures were resolved on SDS-PAGE, electrotransferred to nitrocellulose membranes, and the amount of incorporated radioactive [^32P}-label into p27 was quantified with a PhosphorImager and ImageJ software. Individual membranes were probed with anti-CK2-alpha-prime, anti-p27 (input), or phosphorylation site specific antibodies to p27. […] Samples were resolved on SDS-PAGE, transferred to nitrocellulose-membranes, and the amount of incorporated radioactive label into histones was quantified with a PhosphorImager and ImageJ. The input amount of each CK2-alpha-prime and p27 protein used in the kinase reaction mixtures was monitored by immunoblot analysis employing anti-His. […] Biochemically fractionated extracts corresponding to 4×10^5 cells per lane were analyzed by immunoblotting employing antibodies as indicated on the left. […]

[2] = test system: p27 degradation in cardiomyocytes; assay: Ang II-triggered p27 degradation / p27 half-life in cardiomyocytes; assay type: cell-based, rat; settings: for Ang II-triggered decrease in p27 protein levels / p27 destabilization: cardiomyocytes + Ang II, lactacystin 10 μM 30 min pre-treatment, DMAT 30 minutes prior, lentivirus 72 h; for p27 degradation: proteasome inhibitors, conditions not given
Procedure: FIG. 3 is a series of graphs, blots and cell stainings showing essential function of CK2-alpha-prime-mediated p27 degradation for cardiomyocyte hypertrophy. […] Cells were transduced with TAT-conjugated wt.p27 (2.5 μg/ml), phosphorylation resistant p27deltaPi, or phosphomimicking mutant p27.S83D/T187D for 1 h before Ang II addition for 4 h. Isotypic anti-CK2-alpha-prime immunocomplex kinase assays were performed employing histone H1 substrate. Input levels of transduced TAT-fusion proteins were determined prior to Ang II addition by immunoblotting of total cell extracts. Mean±s.e.m., n=3. *P<0.01 vs unstimulated cells. **P<0.01 vs Ang II. #P<0.01. endog, endogenous. (B) Pharmacological inhibition of the 26S-proteasome abrogates Ang II-triggered p27 degradation. […] Alternatively, lactacystin-treated cardiomyocytes were transduced with TAT-conjugated CK2-alpha-prime or p27deltaPi (2.5 μg/ml) for 1 h prior to Ang II addition. Anti-CK2-alpha-prime immunocomplex kinase assays were performed employing histone H1 as substrate. Western blots of total cell extracts (50 μg/lane) were probed with antibodies as indicated on the left. (C) Inhibition of CK2-alpha-prime prevents Ang II-induced degradation of p27. […] Cells were then chased with excess cold methionine in the presence of Ang II and cycloheximide (100 μg/ml) to block protein synthesis for the indicated timepoints. Alternatively, cells were incubated with DMAT for 30 minutes prior to Ang II stimulation. p27 was immunoprecipitated employing anti-p27 covalently linked to protein A-agarose. Aliquots of total cell extracts were resolved on SDS-PAGE, transferred to nitrocellulose-membranes, autoradiographed (right panel), and quantified with ImageJ software (left panel). (B, C) One typical result of two independent experiments is shown. (D) Subcellular localization of p27 and S83 phosphorylated p27 in Ang II-stimulated cardiomyocytes. Cells were transduced with lentiviruses encoding siCK2-alpha-prime or siControl for 72 h prior to Ang II treatment for the indicated timepoints. […] De novo protein synthesis was determined by in vivo labeling of cardiomyocytes with [^35S]methionine (right panel). Cell size was determined by indirect immunofluorescence microscopy employing anti-tropomyosin staining and ImageJ. Expression levels of endogenous CK2-alpha-prime and p27 were determined by immunoblotting of total cell extracts employing specific antibodies as indicated. Ectopic SR.CK2-alpha-prime and SR.p27 were detected using anti-His. […]
For metabolic labeling, cardiomyocytes were pulsed-labeled with 100 μCi/ml [^35S]methionine/cysteine (1000 Ci/mmol; EasyTag, NEN) for 2 h in methionine/cysteine-deficient medium (DME, ICN). […] The amount of incorporated radioactive label was determined with ImageJ software. […]

WT mice = assay: Reversal of established Ang II-dependent cardiac hypertrophy (16 days infusion, injections from day 8); assay type: in vivo; settings: daily i.p. injections 20 mg/kg initiated at day 8
Text: FIG. 10 is the experimental treatment protocol. To examine the therapeutic effect of p27 on established cardiac hypertrophy, p27 injections were initiated at 8 days after Ang II-infusion.
To examine the effect of transduced p27 on established cardiac hypertrophy, mice were chronically infused with Ang II for 16 days and intraperitoneally injected recombinant TAT-conjugated p27ΔPi and beta-galactosidase (β-Gal) proteins starting from day 8. After 16 days of Ang II-infusion, the heart/body weight ratio were increased by 45% compared to saline-infused controls (FIG. 11B; group 7 vs. group 6). […] Transduced p27ΔPi regressed the increase in heart size by 47% as compared to β-Gal control injections (group 3 vs group 4). In Ang II-infused mice treated with p27ΔPi values of left ventricular posterior wall and interventricular septum thickness, LVEDD, LVESD, FS and EF were not significant different compared to saline-infused mice. Thus, p27 can reverse established compensated cardiac hypertrophy without exerting any deleterious effect on cardiac function.
Spontaneously beating cardiomyocytes from heart ventricles of neonatal rats were cultured and subjected to treatment with angiotensin II (Ang II). DMAT (2-dimethylamino-4,5,6,7-tetrabromo-1H-benzimidazol), DMSO, lactacystin and LLM were obtained from Calbiochem. Ang II was purchased from Sigma. Animal usage was in accordance with approved institutional animal care guidelines. Age-matched male WI C57BL/6 and p27^−/− mice were used in this study. For results shown in FIGS. 1 to 9: Ang II was chronically infused subcutaneously by osmotic pumps (model 2000, Alzet) at a dose of 1.4 μg/kg per minute for 14 days. TAT.proteins (10 mg/kg) were injected intraperitoneally once daily for 14 days. For results shown in FIGS. 10 to 12: Ang II was chronically infused subcutaneously by osmotic pumps (model 2000, Alzet) at a dose of 0.7 μg/kg per minute for 16 days. TAT.proteins (20 mg/kg) were injected intraperitoneally once daily for 8 days starting at day 8. Thoracic aortic banding (TAB) and pressure gradient measurements were performed as described^39.
After fixation in paraformaldehyde (4% in PBS, pH 7.4), a transverse midsection (3 μm thickness) was stained with Alexa Fluor® 488-conjugated wheat germ agglutinin for cross sectional measurements. Cardiomycoyte area was determined by planimetry employing ImageJ software. A total of 200 cells were counted in each group.

In the case of `CN(C)c1nc2c(Br)c(Br)c(Br)c(Br)c2[nH]1` [DMAT, 2-dimethylamino-4,5,6,7-tetrabromo-1H-benzimidazol, reference compound], the “S83/T187 phosphorylation of p27 in cardiomyocytes” value [1] was “abolished” and the “Ang II-triggered decrease in p27 protein levels / p27 destabilization” value [2] was “prevented p27 destabilization”.
In the case of `CC(=O)N[C@@H](CSC(=O)[C@]1([C@@H](O)C(C)C)NC(=O)[C@H](C)[C@@H]1O)C(=O)O` [lactacystin], the “Ang II-triggered decrease in p27 protein levels / p27 destabilization” value [2] was “sensitive to proteasome inhibition”.
Compound “TAT-β-Gal: recombinant TAT-conjugated beta-galactosidase, control injections” has a Heart weight (WT mice; Ang II infusion 16 days (0.7 μg/kg per minute)) of 159 ± 7.3 mg, an FS (WT mice; Ang II infusion 16 days) of 44 ± 1.6 % and a Heart weight/body weight (WT mice; Ang II infusion 16 days) of 6.9 ± 0.2 mg/g. It also gave an IVSD (WT mice; Ang II infusion 16 days) of 1.4 ± 0.1 mm, an LVEDD (WT mice; Ang II infusion 16 days) of 3.8 ± 0.1 mm and an LVEF (WT mice; Ang II infusion 16 days) of 78 ± 3.7 %. For the same compound, the LVESD (WT mice; Ang II infusion 16 days) was 2.7 ± 0.2 mm and the PWD (WT mice; Ang II infusion 16 days) was 1.4 ± 0.1 mm.
`CC(C)C[C@H](NC(=O)[C@H](Cc1ccccc1)NC(=O)c1cnccn1)B(O)O` [PS-341] was tested, and the p27 degradation [2] was “inhibit p27 degradation”.
In the case of alpha-methylomuralide, the p27 degradation [2] was “inhibit p27 degradation”.
